Measured values as given in patent US11609178B2, “Apparatus for analysing a liquid sample comprising particles” (UNIVERSITY COURT OF THE UNIVERSITY OF ST ANDREWS, priority 2018, dated 2023).

Tests used:
Assay type in all cases: cell-based
[1] = test system: bacterial growth of samples; test: Detection apparatus, bacterial growth with antibiotics at EUCAST breakpoint, FIG. 8(a) / Table 1; design: key to S or R result (sensitive / resistant): S: sensitive; R: resistant; conditions: Table 1, FIG. 8(a); antibiotic at EUCAST breakpoint concentration
Description: (§1) FIG. 8(a) and FIG. 8(b) are plots showing bacterial growth of samples as a function of time in the presence of different types of antibiotics. FIGS. 8(a) and 8(b) illustrate break points for different types of antibiotics. Measurements derived using the data shown in FIGS. 8(a) and 8(b) are shown in Table 1 and Table 2, respectively.
(§2) At a fourth step, a test process is performed that includes incubation and obtaining readings. Tests will typically run for a maximum of 30 minutes.
(§3) At a fifth step, an analysis process is performed based on the readings obtained from the test process. The analysis process includes determining if the strain is sensitive or resistant to the or an antibiotic or other agent in the sample chamber based on the obtained readings. Determining whether a sample is sensitive or resistant to an antibiotic or other agent may be referred to as obtaining an S result or an R result. Determining if a sample is a S result or an R result may include comparing a reading to threshold criteria.
(§4) As a first example, if the sample fails to show a 50% inhibition, the sample will be declared R after 30 minutes. In some embodiments, the analysis process includes providing sensitivity results.

Klebsiella = test: Bacterial growth over time in urine samples with different antibiotics (FIG. 10); conditions: urine samples containing Klebsiella; growth curve compared with control line
Description: As a first stage a biological sample containing urine is obtained. A spinning process is applied to the sample and the sample is aliquoted or otherwise divided into wells. The samples are then incubated in an incubator. After a pre-determined time, each sample, in a sample chamber, is moved into a detection configuration with the detection apparatus. This may involve placing the sample in a cuvette into the sample chamber. This may involve sequentially moving a plurality of sample chambers into the detection configuration. More than one measurement for each sample may be performed and stored to establish growth curves, for example, those shown in FIGS. 6, 7, 8 and 10.
FIG. 10 is a plot of bacterial growth as a function of time in urine samples in the presence of different types of antibiotics. The urine samples contain a significant amount of Klebsiella resistant to meropenem and susceptible to penicillin, amoxicillin, gentamicin and ciprofloxacin. The control line is the upper most line.
The second upper most line correspond to results for a urine sample treated with meropenem. The second upper most line overlaps in part with the control line. The urine sample is thus shown to be resistant to meropenem. The other lines correspond to results for urine samples treated with ciprofloxacin, gentamicin, penicillin and amoxicillin.

[2] = test system: bacterial growth of samples; test: Reference susceptibility test (Vitek 2), sample of FIG. 8(a) / Table 1; conditions: Table 1, sample of FIG. 8(a)
From the text: as §1

[3] = test system: bacterial growth of samples; test: Reference susceptibility test (Vitek 2), sample of FIG. 8(b) / Table 2; conditions: Table 2, sample of FIG. 8(b)
From the text: as §1

[4] = test system: bacterial growth of samples; test: Detection apparatus, bacterial growth with antibiotics at EUCAST breakpoint, FIG. 8(b) / Table 2; design: key to S or R result (sensitive / resistant): S: sensitive; R: resistant; conditions: Table 2, FIG. 8(b); antibiotic at EUCAST breakpoint concentration
Description: as §1, §2, §3, §4

E. coli = test: Bacterial growth over time by light scattering at different antibiotic concentrations (FIGS. 6 and 7); conditions: from plot of detector output vs time
From the text: Any suitable detection and analysis system may be used with the embodiments of FIGS. 1 to 5. In some embodiments a detection and analysis system as described in WO 2016/128747 is used. The content of WO 2016/128747 is hereby incorporated by reference. In some embodiments a light source in the form of a 635 nm wavelength laser is used (any light in the wavelength range 620-750 nm is used in some other embodiments). The laser in this embodiment is connected to a signal generator that is adapted to control a modulation frequency and phase of the laser output. The photodetector is connected to a digital phase sensitive detector (PSD). An input of an amplifier is connected to the signal generator. An output of the amplifier is connected to a digital oscilloscope 66. […]
The signal generator is arranged to modulate the output frequency of the laser source. […] The detected signal is filtered by the PSD. The PSD filters the detected signal from the photodetector. The PSD synchronizes the detected signal with the modulation applied to the light source to provide a dampening system that eliminates unwanted noise, for example, background electrical or luminous noise. The filtered signal is sent to the digital oscilloscope to be recorded. […]

Row | Compound | S or R result (sensitive / resistant) [1] | Time To Results [1] [min] | susceptibility of bacteria in urine sample (Klebsiella) | Reference (Vitek 2 result) [2] [Mg/L] | Reference (Vitek 2 result) [3] | S or R result (sensitive / resistant) [4] | Time To Results [4] [min] | mode of action (E. coli) | minimum inhibitory concentration (MIC) (E. coli)
1 | CC1(C)S[C@@H]2[C@H](NC(=O)[C@H](N)c3ccc(O)cc3)C(=O)N2[C@H]1C(=O)O [Amoxicillin] | (S) | 2.93 | susceptible |  |  |  |  |  | 
2 | CC1(C)S[C@@H]2[C@H](NC(=O)[C@H](N)c3ccccc3)C(=O)N2[C@H]1C(=O)O [Ampicillin] |  |  |  | 8 | >0.5 Mg/L | (R) | >30 |  | 
3 | O=C(O)c1cn(C2CC2)c2cc(N3CCNCC3)c(F)cc2c1=O [Ciprofloxacin] | (S) | 4.4 | susceptible | ≤0.25 | 0.5 Mg/L | (S) | 3.37 |  | 
4 | CC[C@H]1OC(=O)[C@H](C)[C@@H](O[C@H]2C[C@@](C)(OC)[C@@H](O)[C@H](C)O2)[C@H](C)[C@@H](O[C@@H]2O[C@H](C)C[C@H](N(C)C)[C@H]2O)[C@](C)(O)C[C@@H](C)C(=O)[C@H](C)[C@@H](O)[C@]1(C)O [Erythromycin] |  |  |  |  | 1 Mg/L | (S) | 3.3 |  | 
5 | C[C@@H](O)[C@H]1C(=O)N2C(C(=O)O)=C(S[C@@H]3CN[C@H](C(=O)N(C)C)C3)[C@H](C)[C@H]12 [Meropenem, meropenem] | (S) | 2.57 | resistant | ≤0.25 |  | (S) | 2.2 | causes lysis and a reduction in scattering | 
6 | COc1c(N2C[C@@H]3CCCN[C@@H]3C2)c(F)cc2c(=O)c(C(=O)O)cn(C3CC3)c12 [Moxifloxacin] |  |  |  | ≤0.25 |  |  |  |  | 
7 | O=C1CN(/N=C/c2ccc([N+](=O)[O-])o2)C(=O)N1 [Nitrofurantoin] |  |  |  |  | 16 Mg/L | (S) | 3.37 |  | 
8 | COc1cc(Cc2cnc(N)nc2N)cc(OC)c1OC [Trimethoprim] | (S) | 0.73 |  | ≤0.5 | 0.5-2 Mg/L | (S) | 7.33 |  | 
9 | CN[C@H](CC(C)C)C(=O)N[C@H]1C(=O)N[C@@H](CC(N)=O)C(=O)N[C@H]2C(=O)N[C@H]3C(=O)N[C@H](C(=O)N[C@H](C(=O)O)c4cc(O)cc(O)c4-c4cc3ccc4O)[C@H](O)c3ccc(c(Cl)c3)Oc3cc2cc(c3O[C@@H]2O[C@H](CO)[C@@H](O)[C@H](O)[C@H]2O[C@H]2C[C@](C)(N)[C@H](O)[C@H](C)O2)Oc2ccc(cc2Cl)[C@H]1O [Vancomycin] |  |  |  |  | 1 Mg/L | (S) | 7.33 |  | 
10 | Augmentin (co-amox) | (S) | 2.2 |  | 2 | ≤2 Mg/L | (R) | >30 |  | 
11 | gentamicin | (S) | 0.73 | susceptible | ≤1 | 0.5-8 Mg/L | (S) | 0.37 |  | below 2 mg/L
12 | penicillin |  |  | susceptible |  |  |  |  |  | 
